In patent US10653658B2, “Biofilm inhibiting compositions enhancing weight gain in livestock” (Akeso Biomedical, Inc., priority 2015, dated 2020):

System: Salmonella
Assay: Salmonella cfu/g of caeca at day 42 (Example 10)
Format: in vivo
Conditions: in feed
Description: A study was performed to evaluate growth promotion and reduction of Campylobacter carriage using FeTyr in Ross 308 male broilers with 7 treatment groups. Each treatment group comprised eight replicates of 10 birds per pen (80 birds/treatment group), with 2 control groups and […]. All the test groups and both of the control groups were exposed at day 20 of the trial to dirty litter, which tested positive for Campylobacter. This method was used to provide a more natural method to Campylobacter challenge the birds. Thus there were two positive controls where each treatment group was challenged with Campylobacter, and five treatment groups that were all challenged with Campylobacter. The total number of birds used in the 7 treatment groups was 560.
At day 20, litter, which was naturally Campylobacter-contaminated, was tested to confirm the presence of Campylobacter, and then added (approximately 2 kg/pen) to the litter in all pens. At day 42, caecal samples were taken and tested for Campylobacter, E. coli and Salmonella enumeration.

O=C([O-])C1(O)CC(O)C(O)C(O)C1.O=C([O-])C1(O)CC(O)C(O)C(O)C1.O=C([O-])C1(O)CC(O)C(O)C(O)C1.[Fe+3] (stereo not shown) [FeQ, Ferric Quinate]
Salmonella cfu/g of caeca at day 42 (FIG. 15): positive effect on reducing Campylobacter infection
